Values of other authors in patent publication US8999893B2, “Stabilized oil-in-water emulsions including meptyl dinocap” (Dow AgroSciences LLC, priority 2008, dated 2015).

In the case of “2,6-dinitro-4-octylphenyl crotonates and 2,4-dinitro-6-octylphenyl crotonates in which ‘octyl’ is a mixture of 1-methylheptyl, 1-ethylhexyl and 1-propylpentyl groups [Meptyl Dinocap]”, the solubility in water is listed as 0.151 µg/mL.
